How the values were obtained:
S. aureus cells = experiment: Relative membrane potential in an S. aureus culture, BacLight Bacterial Membrane Potential Kit (DiOC2), flow cytometry; assay type: cell-based, Staphylococcus aureus; settings: SYTOX Blue-positive dead cells excluded, data not shown
[1] = test system: Jurkat cells (T-cell leukemia, human); experiment: Apoptosis detection with the Annexin V Dead Cell Apoptosis Kit by acoustic flow cytometry; assay type: cell-based; settings: 10 μM camptothecin for 4 hr, Annexin V staining, 488 nm excitation
Source text: Apoptotic plasma membrane assays for flow cytometry: Some of the earliest detectable apoptotic events involve the plasma membrane, including changes in membrane asymmetry and permeability. In addition to annexin V conjugates, Life Technologies provides unique assays to measure membrane changes under conditions where annexin V binding is problematic, such as in adherent cells, and without using special buffers. Annexin V conjugates In apoptotic cells, phosphatidylserine (PS) is translocated from the inner to the outer leaflet of the plasma membrane, thus exposing PS to the external cellular environment. Annexin V labeled with a fluorophore can identify apoptotic cells by binding to PS exposed on the outer leaflet of the membrane. The Alexa Fluor® series of dyes, used in Life Technologies Annexin V Dead Cell Apoptosis Kits provides brighter and more photostable bioconjugates than other organic dyes with similar spectral characteristics. Apoptosis detection with the Annexin V Dead Cell Apoptosis Kit. Jurkat cells (T-cell leukemia, human) treated with 10 μM camptothecin for 4 hr (B) or untreated control (A). Cells were stained using the Annexin V Dead Cell Apoptosis Kit and analyzed by flow cytometry with 488 nm excitation on the Attune® Acoustic Focusing Cytometer with 530/30 Xnm and 575/24 nm bandpass filters. Data were acquired with a standard 100 XμL/min collection rate. […]

| SMILES | red-shifted DiOC2 fluorescence (membrane potential), treated versus untreated sample (S. aureus cells) | percentage of apoptotic cells versus untreated control [1] |
| --- | --- | --- |
| N#CC(C#N)=NNc1cccc(Cl)c1 [CCCP, carbonylcyanide 3-chlorophenylhydrazone] | increased red-shifted DiOC2 fluorescence in the untreated sample (−CCCP, green) as compared to the CCCP-treated sample |  |
| CC[C@@]1(O)C(=O)OCc2c1cc1n(c2=O)Cc2cc3ccccc3nc2-1 [camptothecin] |  | higher percentage of apoptotic cells |
